The subject of series [1] is MTAP-deleted lung cancer cells (A549). Briefly: Cell proliferation of MTAP-deleted A549 cells by MTT assay, mizoribine base pre-treatment then L-alanosine. The class given is cell-based. Particulars: Homo sapiens. The procedure:
MTAP-deleted lung cancer cells (A549) were pre-treated for 24 hours with control vehicle (square), or the indicated concentrations of mizoribine-base (10 μM, 25 μM and 50 μM). After 24 hours in culture L-alanosine was added at decreasing concentrations (½ dilutions) starting at 40 μM. Cell were then incubated for an additional 48 hours. Cell proliferation was tested by the MTT assay. As indicated by FIG. 4, the IC50 and IC90 (amount of drug needed to block proliferation by 50% or 90%) of L-alanosine declines in the presence of mizoribine base.
A general note: Tetrazolium assays rely on reduction of a dye to a coloured formazan, in cell work by metabolically active cells.

The test system of series [2] is CLL cells. Kind of series: CLL cell viability by MTT dye assay. The class given is cell-based. To be noted: Homo sapiens, 24 h, read-out: cell viability. As for the experimental part: Indanocine is commercially available from Calbiochem (Cat. No. 402080). Leoni L. M., et al., J Natl Cancer Inst. 92:217-224 (2000). Hua X. H., et al., Cancer Res. 61:7248-7254 (2001). CLL cells were isolated and cultured as described above. CLL cells at a density of 1×10^6 ml were incubated for 24 hours in RPMI 1640 medium supplemented with 10% fetal bovine serum in the presence of 1 μM indanocine (abbreviated 178) and either 0, 1, or 10 μM mizoribine. Cell viability was assessed by the MTT [3-(4,5-dimethylthiazol-2-yl)-2,5-diphenyltetrazolium bromide) dye assay.

Series [3] concerns MTAP-deleted chronic myelogenous leukemia cells (K562). Kind of series: Cell proliferation of MTAP-deleted K562 cells by MTT dye assay. The class given is cell-based. To be noted: read-out: IC50 (amount of drug needed to block proliferation by 50%). As for the experimental part: MTAP-deleted chronic myelogenous leukemia cells (K562) were pre-treated for the indicated times (24, 48, 72 hours) with concentrations of mizoribine (squares) or mizoribine base (triangles) from 200 μM to 0.5 μM. At the end of the incubation time cell proliferation was tested by the MTT dye assay. As indicated by FIG. 3, the IC50 (amount of drug needed to block proliferation by 50%) of mizoribine or its base progressively declines as the time of exposure to drug increases. After 48 hours of incubation with mizoribine or mizoribine base, the IC50 for the drug is approximately 100 micromolar. After 72 hours of incubation with mizoribine or mizoribine base, the IC50 for the drug is approximately 10 micromolar.

The conditions of series [4]: in vivo; cited from earlier work.
Another series relates to activated PBL. Kind of series: α-tubulin polymerization assay in PBL activated with anti-CD3 and anti-CD28 antibodies. The class given is cell-based, human. To be noted: PBL activated 24 hrs with anti-CD3 and anti-CD28, paclitaxel for one hour. The procedure:
(§1) Peripheral blood from CLL patients or normal donors was layered on top of Ficoll-Paque Plus (Pharmacia, NJ) and centrifuged at 1200×g for twenty minutes. The enriched peripheral blood mononuclear cells (PBL) were washed several times with Ca++, Mg++-free HBSS.
(§2) All primary cells were cultured in RPMI 1640 medium with 20% fetal bovine serum (regular medium) at a density of 2-5×10^6 cell/ml. In some cases, the PBL were stimulated for 24 hours with 1 μg/ml anti-CD3 and anti-CD28 antibodies (Alexis, San Diego, Calif.) prior to immunoblot analysis.
(§3) α-tubulin Polymerization Assay. For each data point, 2×10^6 of cells were incubated in 2 ml of regular medium containing drugs for various periods of time. The cells were then washed twice at room temperature, and resuspended in 50 μl of α-tubulin extraction buffer (1 mM MgC2, 2 m MEGTA, 0.5% NP-40, 20 mM Tris-HCl, pH=6.8) supplemented with 2 mM phenylmethysulfonyl fluoride, and a protease inhibitor cocktail (Sigma). After a brief but vigorous vortex, the lysates were incubated at room temperature for 5 minutes, and then centrifuged at 16,000×g for 5 minutes to separate the soluble from polymerized α-tubulin. The supernatant and pellet fractions were resolved on 10-20% pre-cast tris-glycine gels (Novex, San Diego, Calif.) and then subjected to immune blotting with a specific anti-α-tubulin antibody. […]

Series [5] concerns CLL cells. Kind of series: α-tubulin polymerization assay in CLL cells. To be noted: paclitaxel. The class given is cell-based, human. The procedure:
Lymphocyte Cultures. The Institutional Review Board of the University of California, San Diego approved this study, and all patients gave informed written consent to participation. Subjects had CLL according to National Cancer Institute (NCI) criteria of any Rai stage. None of the patients were in active chemotherapeutic treatments. Flow cytometric analysis determined that all specimens contained more than 90% CD5+CD19+B cells.
as §1, §2
α-tubulin Polymerization Assay. For each data point, 2×10^6 of cells were incubated in 2 ml of regular medium containing drugs for various periods of time. The cells were then washed twice at room temperature, and resuspended in 50 μl of α-tubulin extraction buffer (1 mM MgC2, 2 m MEGTA, 0.5% NP-40, 20 mM Tris-HCl, pH=6.8) supplemented with 2 mM phenylmethysulfonyl fluoride, and a protease inhibitor cocktail (Sigma). […]

Series [6] deals with normal PBL (peripheral blood mononuclear cells). Briefly: α-tubulin polymerization assay in normal PBL (soluble vs particulate fraction, immunoblot). The class given is cell-based, human. To be noted: normal resting PBL, paclitaxel for one hour. As for the experimental part: as §1, §2, §3
A general note: Immunoblotting shows a protein as a band on a membrane.

Where [7] appears, read: A549, 48 h, A549, without mizoribine base, 48 hours L-alanosine.
Where [8] appears, read: A549, A549, 24 hours pre-treatment with 10 micromolar mizoribine base.
The mark [9] stands for this setting: A549, A549, 24 hours pre-treatment with 25 micromolar mizoribine base.
Setting [10] is: A549, A549, 24 hours pre-treatment with 50 micromolar mizoribine base.

SMILES strings stand for the structures. Entries after “also recorded” stand apart in the source; their conditions may differ. Where two headings read alike, the source gives them in different places.

For orientation: IC90 means the concentration needed for an effect of 90%. Take `N[C@@H](CN(O)N=O)C(=O)O` [L-alanosine]: the IC50 in series [1] (setting [7]) stood at 0.5 µM; in series [1] (setting [8]) it was 0.5 µM; in series [1] (setting [9]) it was 0.25 µM; in series [1] (setting [10]), 0.15 µM. Also, the IC90 amounted to 20 µM in series [1] (setting [7]), 9 µM in series [1] (setting [8]), 6 µM in series [1] (setting [9]) and 4 µM in series [1] (setting [10]).
The term viability denotes the share of living cells, or the viability signal relative to a control. Consider `COc1cc2c(c(N)c1OC)C(=O)/C(=C\c1cc(C)c(O)c(C)c1)C2` [indanocine], for which the viability at 1 µM with CLL cells [2] is 24%.
In the case of `NC(=O)c1[nH]cnc1O` [mizoribine base, mizoribine aglycone], the IC50 was approximately 100 µM in series [3] (K562, 48 hours of incubation) and approximately 10 µM in series [3] (K562, 72 hours of incubation).
Regarding `NC(=O)c1ncn([C@@H]2O[C@H](CO)[C@@H](O)[C@H]2O)c1O` [mizoribine], in series [4], the plasma half life entry is on record as “a few hours”. Besides, the IC50 in series [3] (Homo sapiens, K562, 48 hours of incubation) is approximately 100 µM; in series [3] (Homo sapiens, K562, 72 hours of incubation) it was approximately 10 µM. Moreover, in the series with CLL cells [2], the viability at 1 µM came out at 55%. The viability at 10 µM with CLL cells [2] turned out to be 45%.
Turning to `CC(=O)O[C@H]1C(=O)[C@@]2(C)[C@H]([C@H](OC(=O)c3ccccc3)[C@]3(O)C[C@H](OC(=O)[C@H](O)[C@@H](NC(=O)c4ccccc4)c4ccccc4)C(C)=C1C3(C)C)[C@]1(OC(C)=O)CO[C@@H]1C[C@@H]2O` [paclitaxel], the “α-tubulin in the particulate fraction after treatment” value in the series on activated PBL is on record as “most of the α-tubulin shifted to the particulate fraction; also recorded: a shift of α-tubulin to the particulate-bound fraction”; in the series with CLL cells [5], “nearly complete relocalization of α-tubulin to the particulate fraction”; in series [6] it was “only a minimal increase of α-tubulin in the particulate fraction; also recorded: did not change this pattern”.
